This series in a line: Clinical trials, longer-term ximelagatran treatment: ALAT elevation in patients. Format: in vivo, human. An excerpt: Alanine aminotransferase (ALAT) is an enzyme mostly expressed in the liver (EC 2.6.1.2). It is also called serum glutamate pyruvate transaminase (SGPT) or alanine transaminase (ALT). This enzyme is release into the plasma by liver cell death, which is a normal event. However, when liver cell death increases, ALAT levels rise above the normal range. The spillover of this enzyme into blood is routinely measured as a marker of abnormal liver-cell damage. For example, alcoholic or viral hepatitis will increase ALAT levels, as will severe congestive heart failure. ALAT is also markedly raised in hepatitis and other acute liver damage. An elevated ALAT in the presence of normal levels of plasma alkaline phosphatase helps distinguish liver disease caused by liver-cell damage from diseases caused by problems in biliary ducts. Elevations of ALAT are normally measured in multiples of the upper limit of normal (ULN), with a reference range of 15-45 U/L in most laboratories. In 1987, in a study of 19,877 healthy Air Force recruits, only 99 (0.5%) had confirmed ALAT elevations (as reviewed in Green & Flamm (2002) Gastroenterology 123:1367-1384).
Subject to the future regulatory approval of ximelagatran, regular liver function testing (LFT) using an appropriate algorithm may be required if ximelagatran is used for treatment periods exceeding a month. Studies are currently ongoing to try and establish the mechanism of the ALAT elevations, and their hepatic and overall clinical significance.

For the compound `CCOC(=O)CN[C@@H](C(=O)N1CC[C@H]1C(=O)NCc1ccc(/C(N)=N\O)cc1)C1CCCCC1` [ximelagatran, EtOOC—CH2—(R)Cgl-Aze-Pab-OH], the “symptoms accompanying ALAT increases” value (longer-term treatment) is recorded as “mainly asymptomatic”. The “patients exhibiting levels of alanine aminotransferase (ALAT) 3-fold or more above the upper limit of normal (≧3×ULN)” value (longer-term treatment (>35 days), 1.2% in the comparator groups) is given as 7.9%. The “reversibility of ALAT increases” value (regardless of whether treatment was continued or discontinued) is recorded as “reversible in most patients”. Moreover, for the setting “usually, from start of treatment”, the “time of occurrence of the increase in ALAT values” is on record as not above 6 months.
